# Columns and labels:
# galium = test: Test C postemergence; assay type: in vivo, Galium aparine; conditions: for Galium plant response rating: 16 g ai/ha, visual rating; for Galium plant response rating / Plant response rating (0 to 100), Galium: postemergence; for Galium plant response rating / Plant response rating, Galium: scale 0 to 100 (0 no effect, 100 complete control); for Plant response rating (0 to 100), Galium: 125 g ai/ha; for Plant response rating, Galium: Postemergence
# Summary of the method: (§1)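 Rated visually on 0–100 (100 = complete control) after 13–15 days under glass. Treatments went onto freshly seeded loam/sand soil or onto emerged plants at the 1- to 4-leaf stage, using a surfactant-containing solvent formulation.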
# pigweed = test: Test C preemergence; assay type: in vivo, Amaranthus retroflexus; conditions: for Pigweed plant response rating: preemergence; for Plant response rating, Pigweed: Preemergence, 31 g ai/ha, scale 0 to 100, 0 no effect, 100 complete control
# Summary of the method: as §1
# corn = test: Test A postemergence; assay type: in vivo, Zea mays
# Summary of the method: (§2)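 Pre- and postemergence greenhouse screen. Soil: loam + sand. Spray carrier: solvent mixture, non-phytotoxic, with surfactant. Post timing at 1–2 leaves, height 2–10 cm. Readout: visual injury on a 0–100 scale roughly 10 days after application, untreated plants as reference.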
# morningglory = test: Test C postemergence; assay type: in vivo, Ipomoea coccinea; conditions: for Plant response rating (0 to 100), Morningglory: 125 g ai/ha, postemergence; for Plant response rating, Morningglory: Postemergence, scale 0 to 100 (0 no effect, 100 complete control)
# Summary of the method: as §1
# Heteranthera limosa = test: Test B flooded paddy test; assay type: in vivo; conditions: Flood, 250 g ai/ha; 0 to 100 scale where 0 is no effect and 100 is complete control
# Summary of the method: (§3)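 Post-emergence paddy-water application at the 2-leaf stage, with 3 cm flood kept for the whole test. Response was judged visually relative to controls after 13 to 15 greenhouse days, 0 indicating no effect and 100 complete control.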
# chickweed = test: Test C postemergence; assay type: in vivo, Stellaria media; conditions: for Chickweed plant response rating: 16 g ai/ha, visual rating; for Chickweed plant response rating / Plant response rating (0 to 100), Chickweed: postemergence; for Chickweed plant response rating / Plant response rating, Chickweed: scale 0 to 100 (0 no effect, 100 complete control); for Plant response rating (0 to 100), Chickweed: 125 g ai/ha; for Plant response rating, Chickweed: Postemergence
# Summary of the method: as §1
# wheat, winter = test: Test C preemergence; assay type: in vivo, Triticum aestivum; conditions: for Wheat plant response rating: preemergence; for Plant response rating, Wheat: Preemergence, 31 g ai/ha, scale 0 to 100, 0 no effect, 100 complete control
# Summary of the method: as §1
# giant foxtail [1] = test: Test C preemergence; assay type: in vivo, Setaria faberii; conditions: for Foxtail, Giant plant response rating: preemergence; for Plant response rating, Foxtail, Giant: Preemergence, 31 g ai/ha, scale 0 to 100, 0 no effect, 100 complete control
# Summary of the method: as §1
# barnyardgrass [2] = test: Test A postemergence; assay type: in vivo, Echinochloa crus-galli
# Summary of the method: as §2
# velvetleaf = test: Test C preemergence; assay type: in vivo, Abutilon theophrasti; conditions: for Velvetleaf plant response rating: preemergence; for Plant response rating, Velvetleaf: Preemergence, 31 g ai/ha, scale 0 to 100, 0 no effect, 100 complete control
# Summary of the method: as §1
# giant foxtail [3] = test: Test A postemergence; assay type: in vivo, Setaria faberii; conditions: 0 to 100 scale where 0 is no effect and 100 is complete control
# Summary of the method: as §2
# yellow nutsedge = test: Test C preemergence; assay type: in vivo, Cyperus esculentus; conditions: for Nutsedge, Yellow plant response rating: preemergence; for Plant response rating, Nutsedge, Yellow: Preemergence, 31 g ai/ha, scale 0 to 100, 0 no effect, 100 complete control
# Summary of the method: as §1
# barnyardgrass [4] = test: Test B flooded paddy test; assay type: in vivo, Echinochloa crus-galli; conditions: Flood, 250 g ai/ha; 0 to 100 scale where 0 is no effect and 100 is complete control
# Summary of the method: as §3
# [5] = 16 g ai/ha, scale 0 to 100 (0 no effect, 100 complete control)
# [6] = 62 g ai/ha, scale 0 (no effect) to 100 (complete control)
# [7] = 125 g ai/ha, scale 0 (no effect) to 100 (complete control)
# [8] = 125 g ai/ha, 0 to 100 scale where 0 is no effect and 100 is complete control
# [9] = 500 g ai/ha, 0 to 100 scale, 0 no effect, 100 complete control
# [10] = 500 g ai/ha, 0 to 100 scale where 0 is no effect and 100 is complete control
Compound,Galium plant response rating (galium; 13 to 15 days),"Plant response rating (0 to 100), Galium (galium)","Plant response rating, Galium (galium; 31 g ai/ha, 13 to 15 days)","Plant response rating, Galium (galium; 62 g ai/ha)",Pigweed plant response rating (pigweed; [5]),Pigweed plant response rating (pigweed; [6]),Pigweed plant response rating (pigweed; [7]),"Plant response rating, Pigweed (pigweed)","Plant response rating, Corn (corn; [8])","Plant response rating (0 to 100), Morningglory (morningglory)","Plant response rating, Morningglory (morningglory; 31 g ai/ha, 13 to 15 days)","Plant response rating, Morningglory (morningglory; 62 g ai/ha)","Plant response rating, Ducksalad (Heteranthera limosa)",Chickweed plant response rating (chickweed; 13 to 15 days),"Plant response rating (0 to 100), Chickweed (chickweed)","Plant response rating, Chickweed (chickweed; 31 g ai/ha, 13 to 15 days)","Plant response rating, Chickweed (chickweed; 62 g ai/ha)","Wheat plant response rating (wheat, winter; [5])","Wheat plant response rating (wheat, winter; [6])","Wheat plant response rating (wheat, winter; [7])",other results
FCc1cccc(Oc2ncc(Cl)cn2)c1-n1cc(Br)cn1 [Compound 83],50,60,65,70,85,100,100,100,40,85,65,75,45,35,70,40,60,0,0,0,"Plant response rating, Corn (corn; [9]): 60; Plant response rating, Wheat (wheat, winter): 0; Foxtail, Giant plant response rating (giant foxtail [1]; [5]): 5; Foxtail, Giant plant response rating (giant foxtail [1]; [6]): 100; Foxtail, Giant plant response rating (giant foxtail [1]; [7]): 100; Plant response rating, Foxtail, Giant (giant foxtail [1]): 75; Plant response rating, Barnyardgrass (barnyardgrass [2]; [8]): 90; Plant response rating, Barnyardgrass (barnyardgrass [2]; [9]): 100; Velvetleaf plant response rating (velvetleaf; [5]): 60; Velvetleaf plant response rating (velvetleaf; [6]): 100; Velvetleaf plant response rating (velvetleaf; [7]): 100; Plant response rating, Velvetleaf (velvetleaf): 100; Plant response rating, Foxtail, Giant (giant foxtail [3]; 125 g ai/ha): 90; Plant response rating, Foxtail, Giant (giant foxtail [3]; 500 g ai/ha): 100; Nutsedge, Yellow plant response rating (yellow nutsedge; [5]): 0; Nutsedge, Yellow plant response rating (yellow nutsedge; [6]): 0; Nutsedge, Yellow plant response rating (yellow nutsedge; [7]): 15; Plant response rating, Nutsedge, Yellow (yellow nutsedge): 0; Plant response rating, Barnyardgrass (barnyardgrass [4]): 0"
CCOc1cn(-c2c(Br)cccc2Oc2ncc(Cl)cn2)nn1 [Compound 84],60,95,75,60,85,100,100,100,20,85,70,85,50,10,50,10,40,0,0,0,"Plant response rating, Corn (corn; [9]): 70; Plant response rating, Wheat (wheat, winter): 0; Foxtail, Giant plant response rating (giant foxtail [1]; [5]): 5; Foxtail, Giant plant response rating (giant foxtail [1]; [6]): 98; Foxtail, Giant plant response rating (giant foxtail [1]; [7]): 100; Plant response rating, Foxtail, Giant (giant foxtail [1]): 55; Plant response rating, Barnyardgrass (barnyardgrass [2]; [8]): 70; Plant response rating, Barnyardgrass (barnyardgrass [2]; [9]): 100; Velvetleaf plant response rating (velvetleaf; [5]): 50; Velvetleaf plant response rating (velvetleaf; [6]): 85; Velvetleaf plant response rating (velvetleaf; [7]): 100; Plant response rating, Velvetleaf (velvetleaf): 60; Plant response rating, Foxtail, Giant (giant foxtail [3]; 125 g ai/ha): 100; Plant response rating, Foxtail, Giant (giant foxtail [3]; 500 g ai/ha): 100; Nutsedge, Yellow plant response rating (yellow nutsedge; [5]): 0; Nutsedge, Yellow plant response rating (yellow nutsedge; [6]): 5; Nutsedge, Yellow plant response rating (yellow nutsedge; [7]): 40; Plant response rating, Nutsedge, Yellow (yellow nutsedge): 0; Plant response rating, Barnyardgrass (barnyardgrass [4]): 0"
N#Cc1cccc(Oc2ncc(F)cn2)c1-n1cc(I)cn1 [Compound 86],55,80,60,80,90,100,100,100,50,85,80,85,75,40,80,55,60,0,0,35,"Plant response rating, Corn (corn; [10]): 100; Plant response rating, Wheat (wheat, winter): 0; Foxtail, Giant plant response rating (giant foxtail [1]; [5]): 35; Foxtail, Giant plant response rating (giant foxtail [1]; [6]): 100; Foxtail, Giant plant response rating (giant foxtail [1]; [7]): 100; Plant response rating, Foxtail, Giant (giant foxtail [1]): 75; Plant response rating, Barnyardgrass (barnyardgrass [2]; [8]): 90; Plant response rating, Barnyardgrass (barnyardgrass [2]; [10]): 100; Velvetleaf plant response rating (velvetleaf; [5]): 20; Velvetleaf plant response rating (velvetleaf; [6]): 100; Velvetleaf plant response rating (velvetleaf; [7]): 100; Plant response rating, Velvetleaf (velvetleaf): 50; Plant response rating, Foxtail, Giant (giant foxtail [3]; 125 g ai/ha): 90; Plant response rating, Foxtail, Giant (giant foxtail [3]; 500 g ai/ha): 100; Nutsedge, Yellow plant response rating (yellow nutsedge; [5]): 0; Nutsedge, Yellow plant response rating (yellow nutsedge; [6]): 5; Nutsedge, Yellow plant response rating (yellow nutsedge; [7]): 35; Plant response rating, Nutsedge, Yellow (yellow nutsedge): 0; Plant response rating, Barnyardgrass (barnyardgrass [4]): 0"
N#Cc1cccc(Oc2ncc(Br)cn2)c1-n1cc(I)cn1 [Compound 88],70,95,80,70,100,100,100,100,30,95,90,85,25,5,90,15,20,0,0,5,"Plant response rating, Corn (corn; [10]): 50; Plant response rating, Wheat (wheat, winter): 0; Foxtail, Giant plant response rating (giant foxtail [1]; [5]): 5; Foxtail, Giant plant response rating (giant foxtail [1]; [6]): 98; Foxtail, Giant plant response rating (giant foxtail [1]; [7]): 100; Plant response rating, Foxtail, Giant (giant foxtail [1]): 65; Plant response rating, Barnyardgrass (barnyardgrass [2]; [8]): 60; Plant response rating, Barnyardgrass (barnyardgrass [2]; [10]): 80; Velvetleaf plant response rating (velvetleaf; [5]): 15; Velvetleaf plant response rating (velvetleaf; [6]): 100; Velvetleaf plant response rating (velvetleaf; [7]): 100; Plant response rating, Velvetleaf (velvetleaf): 98; Plant response rating, Foxtail, Giant (giant foxtail [3]; 125 g ai/ha): 50; Plant response rating, Foxtail, Giant (giant foxtail [3]; 500 g ai/ha): 80; Nutsedge, Yellow plant response rating (yellow nutsedge; [5]): 0; Nutsedge, Yellow plant response rating (yellow nutsedge; [6]): 5; Nutsedge, Yellow plant response rating (yellow nutsedge; [7]): 5; Plant response rating, Nutsedge, Yellow (yellow nutsedge): 0; Plant response rating, Barnyardgrass (barnyardgrass [4]): 0"
CCOc1cnn(-c2c(C#N)cccc2Oc2ncc(F)cn2)c1 [Compound 89],45,55,40,50,55,100,100,90,60,85,70,55,95,20,60,50,50,0,0,5,"Plant response rating, Corn (corn; [10]): 90; Plant response rating, Wheat (wheat, winter): 0; Foxtail, Giant plant response rating (giant foxtail [1]; [5]): 5; Foxtail, Giant plant response rating (giant foxtail [1]; [6]): 100; Foxtail, Giant plant response rating (giant foxtail [1]; [7]): 100; Plant response rating, Foxtail, Giant (giant foxtail [1]): 35; Plant response rating, Barnyardgrass (barnyardgrass [2]; [8]): 40; Plant response rating, Barnyardgrass (barnyardgrass [2]; [10]): 90; Velvetleaf plant response rating (velvetleaf; [5]): 20; Velvetleaf plant response rating (velvetleaf; [6]): 100; Velvetleaf plant response rating (velvetleaf; [7]): 100; Plant response rating, Velvetleaf (velvetleaf): 70; Plant response rating, Foxtail, Giant (giant foxtail [3]; 125 g ai/ha): 80; Plant response rating, Foxtail, Giant (giant foxtail [3]; 500 g ai/ha): 90; Nutsedge, Yellow plant response rating (yellow nutsedge; [5]): 0; Nutsedge, Yellow plant response rating (yellow nutsedge; [6]): 10; Nutsedge, Yellow plant response rating (yellow nutsedge; [7]): 70; Plant response rating, Nutsedge, Yellow (yellow nutsedge): 5; Plant response rating, Barnyardgrass (barnyardgrass [4]): 10"
